Measured values published in patent US7947727B2, “Compounds” (GlaxoGroupLimited, priority 2006, dated 2011).

Test system: NFκB activity
Assay: Glucocorticoid Mediated Transrepression of NFκB Activity (A549 ELAM promoter alkaline phosphatase reporter)
Type: cell-based
Conditions: Human A549 lung epithelial cells, 3 ng/ml human recombinant TNFα, 16 hours, read-out: pEC50, transrepression of NFκB activity (converted)
Description: Human A549 lung epithelial cells were engineered to contain a secreted placental alkaline phosphatase gene under the control of the distal region of the NFκB dependent ELAM promoter as previously described in Ray, K. P., Farrow, S., Daly, M., Talabot, F. and Searle, N. “Induction of the E-selectin promoter by interleukin 1 and tumour necrosis factor alpha, and inhibition by glucocorticoids” Biochemical Journal (1997) 328: 707-15.
Compounds were solvated and diluted in DMSO, and transferred directly into assay plates such that the final concentration of DMSO was 0.7%. Following the addition of cells (40K per well), plates were incubated for 1 hour prior to the addition of 3 ng/ml human recombinant TNFα. Following continued incubation for 16 hours, alkaline phosphatase activity was determined by measuring the change in optical density at 405 nm with time following the addition of 0.7 volumes of assay buffer (1 mg/ml p-nitrophenylphosphate dissolved in 1M diethanolamine, 0.28M NaCl, 0.5 mM MgCl2). Dose response curves were constructed from which EC50 values were estimated.

EC50, ≤ 10 nM:
CCN(CC(O)(CNc1cccc2c1cnn2-c1ccccc1)C(F)(F)F)C(=O)c1ccccc1F (single isomer, unassigned) [Example 3A, N-Ethyl-2-fluoro-N-(3,3,3-trifluoro-2-hydroxy-2-{[(1-phenyl-1H-indazol-4-yl)amino]methyl}propyl)benzamide]
CCN(CC(O)(CNc1cccc2c1cnn2-c1ccc(F)cc1)C(F)(F)F)C(=O)c1ccccc1C (single isomer, unassigned) [Example 6A, N-Ethyl-2-methyl-N-[3,3,3-trifluoro-2-({[1-(4-fluorophenyl)-1H-indazol-4-yl]amino}methyl)-2-hydroxypropyl]benzamide]
CCN(CC(O)(CNc1cccc2c1cnn2-c1ccc(F)cc1)C(F)(F)F)C(=O)c1ccccc1F (single isomer, unassigned) [Example 7A, N-Ethyl-2-fluoro-N-[3,3,3-trifluoro-2-({[1-(4-fluorophenyl)-1H-indazol-4-yl]amino}methyl)-2-hydroxypropyl]benzamide]
CCN(CC(O)(CNc1cccc2c1cnn2-c1ccc(F)cc1)C(F)(F)F)C(=O)c1ccccc1F (stereo not shown) [Example 7, N-Ethyl-2-fluoro-N-[3,3,3-trifluoro-2-({[1-(4-fluorophenyl)-1H-indazol-4-yl]amino}methyl)-2-hydroxypropyl]benzamide]
